{
  "source": "ChEMBL document CHEMBL6087405",
  "about": "“Discovery and optimization of anthraquinone derivatives containing substituted bisbenzyloxy groups as a novel scaffold damaged endoplasmic reticulum and against hepatocellular carcinoma cells” (Bioorg Med Chem, 2024)",
  "key": {"Huh-7 [1]": {"tested_on": "Huh-7", "assay": "Antiproliferative activity against human Huh-7 cells measured after 48 hrs by MTT assay", "type": "functional, cell-based", "settings": "Huh-7, 48 h"}, "Huh-7 [2]": {"tested_on": "Huh-7", "assay": "Induction of apoptosis in human Huh-7 cells assessed as necrotic cells at 8 uM measured after 48 hrs by Annexin V-PE staining based flow cytometry analysis (reference value: 3.37%)", "type": "functional"}, "Huh-7 [3]": {"tested_on": "Huh-7", "assay": "Induction of apoptosis in human Huh-7 cells assessed as late apoptotic cells at 4 uM measured after 48 hrs by Annexin V-PE staining based flow cytometry analysis (reference value: 2.06%)", "type": "functional"}, "Huh-7 [4]": {"tested_on": "Huh-7", "assay": "Induction of apoptosis in human Huh-7 cells assessed as late apoptotic cells at 2 uM measured after 48 hrs by Annexin V-PE staining based flow cytometry analysis (reference value: 2.06%)", "type": "functional"}, "Huh-7 [5]": {"tested_on": "Huh-7", "assay": "Induction of ER stress in human Huh-7 cells assessed as increase in PERK protein level at 4 uM incubated for 48 hrs in presence of 4pba by Western blot analysis", "type": "functional, cell-based"}, "Huh-7 [6]": {"tested_on": "Huh-7", "assay": "Induction of mitochondrial ROS release in human Huh-7 cells at 2 uM measured after 24 hrs in presence of […] by fluorescent microscopic analysis", "type": "functional, cell-based"}, "Huh-7 [7]": {"tested_on": "Huh-7", "assay": "Upregulation of Cytochrome C level in human Huh-7 cells at 2 to 4 uM by Western blot analysis", "type": "functional, cell-based", "settings": "dose 2-4 µM"}, "Huh-7 [8]": {"tested_on": "Huh-7", "assay": "Induction of ER damage in human Huh-7 cells assessed as decrease in glycoprotein content at 2 to 4 uM incubated for 48 hrs by ELISA method", "type": "functional, cell-based", "settings": "dose 2-4 µM"}, "Huh-7 [9]": {"tested_on": "Huh-7", "assay": "Induction of morphological change in human Huh-7 cells assessed as membrane wrinkling at 2 to 4 uM measured after 48 hrs by HE staining based microscopic analysis", "type": "functional, cell-based", "settings": "dose 2-4 µM"}, "Huh-7 [10]": {"tested_on": "Huh-7", "assay": "Induction of apoptosis in human Huh-7 cells assessed as early apoptotic cells at 8 uM measured after 48 hrs in presence of Z-VAD by Annexin V-PE staining based flow cytometry analysis (reference value: 0.88%)", "type": "functional"}, "Huh-7 [11]": {"tested_on": "Huh-7", "assay": "Induction of ER stress in human Huh-7 cells assessed as increase in GRP78 protein level at 2 to 4 uM incubated for 48 hrs by Western blot analysis", "type": "functional, cell-based", "settings": "dose 2-4 µM"}},
  "note": "Active and inactive are the calls of the source. The calls are words filed in the database; no cut-off is given here.",
  "data": [
    {"smiles": "COc1ccc(COc2cccc3c2C(=O)c2c(OCc4ccc(OC)cc4)cc(C(=O)NCCNCCO)cc2C3=O)cc1", "values": [
      {"measurement": "IC50", "setting": "Huh-7 [1]", "result": 1750, "unit": "nM"},
      {"measurement": "Activity", "setting": "Huh-7 [2]", "result": 1.2, "unit": "%"},
      {"measurement": "Activity", "setting": "Huh-7 [3]", "result": 7.59, "unit": "%"},
      {"measurement": "Activity", "setting": "Huh-7 [4]", "result": 4.4, "unit": "%"},
      {"measurement": "Activity", "setting": "Huh-7 [5]", "result": "inactive"},
      {"measurement": "Activity", "setting": "Huh-7 [6]", "result": "inactive"},
      {"measurement": "Activity", "setting": "Huh-7 [7]", "result": "Active"},
      {"measurement": "Activity", "setting": "Huh-7 [8]", "result": "Active"},
      {"measurement": "Activity", "setting": "Huh-7 [9]", "result": "Active"},
      {"measurement": "Activity", "setting": "Huh-7 [10]", "result": 16.45, "unit": "%"},
      {"measurement": "Activity", "setting": "Huh-7 [11]", "result": "Active"}
    ]}
  ]
}
